Source: PMC9569450, “Dual Effect of Tryptamine on Prostate Cancer Cell Growth Regulation: A Pilot Study” (International Journal of Molecular Sciences, 2022)

Experiments:
[1] = tested on: PC-3, LNCaP, RWPE-1, A549, PANC-1, and HepG2 cells; test: MTT cell proliferation assay, all cell lines; format: cell-based; details: all cell lines tested; read-out: IC50 values for all six cell lines tested
Procedure: PC-3, LNCaP, RWPE-1, HepG2, A549, and PANC-1 cells were purchased from the National Collection of Authenticated Cell Cultures (Shanghai, China). PC-3 and A549 cells were cultured in F-12K Nutrient Mixture (Gibco, New York, NY, USA), LNCaP in RPMI 1640 (Gibco, New York, NY, USA), PANC-1 in Dulbecco’s Modified Eagle Medium (DMEM, Gibco, New York, NY, USA), and HepG2 in minimal essential medium (MEM, Gibco, New York, NY, USA). All the above cell cultures were supplied with 10% fetal bovine serum and 1% penicillin-streptomycin. RWPE-1 cells were cultured in keratinocyte serum-free medium (K-SFM, Gibco, New York, NY, USA) supplemented with 50 mg/L bovine pituitary extract and 5 μg/L epidermal growth factor (EGF). All cell lines were grown in a humidified atmosphere of 5% CO2 at 37 °C.
(§1) Cells were seeded in 100 μL complete medium in a 96-well plate, at a density of 10,000 cells/well for LNCaP and 5000 cells/well for other cells. Cells were pre-incubated for 24 h to allow for adherence before removal of complete medium and treatment with various concentrations of compounds in fetal bovine serum (FBS)-free medium for 48 h. After treatment, 20 μL/well MTT (5 mg/mL) was added and incubated for 3–4 h at 37 °C, and then 100 μL/well DMSO was added for MTT assay. The plate was shaken on an orbital shaker for 10 min. Absorbance was measured using a microplate reader at 492 nm for the MTT assay (performed in triplicates). Cell viability was normalized to control. Half inhibitory concentration (IC50) was calculated by SPSS Statistics 17.0. The combination index (CI) isobologram equation was used for the quantitative determination of the interaction between two compounds [62]:(1) Combination index CI =CA,x/ICx,A+CB,x/ICx,B where CA,x and CB,x are compound concentrations that inhibit 50% cell growth compared to control when being used alone, and ICx,A and ICx,B are compound concentrations that provide the same effect when being used in combination. The experiments were independently repeated two to three times.

[2] = tested on: PANC-1 cells; test: MTT cell proliferation assay, PANC-1; format: cell-based; details: Homo sapiens, PANC-1, 48 h treatment in FBS-free medium, read-out: IC50 Value (Mean ± SD mM) PANC-1
Procedure: PC-3, LNCaP, RWPE-1, HepG2, A549, and PANC-1 cells were purchased from the National Collection of Authenticated Cell Cultures (Shanghai, China). […] All the above cell cultures were supplied with 10% fetal bovine serum and 1% penicillin-streptomycin. RWPE-1 cells were cultured in keratinocyte serum-free medium (K-SFM, Gibco, New York, NY, USA) supplemented with 50 mg/L bovine pituitary extract and 5 μg/L epidermal growth factor (EGF). All cell lines were grown in a humidified atmosphere of 5% CO2 at 37 °C.
as §1, with “The combination index (CI) isobologram equation was used for the quantitative determination of the interaction between two compounds [62]:(1) Combination index CI =CA,x/ICx,A+CB,x/ICx,B where CA,x and CB,x are compound concentrations that inhibit 50% cell growth compared to control when being used alone, and ICx,A and ICx,B are compound concentrations that provide the same effect when being used in combination.” left out

[3] = UPLC-HRMS detection of tryptamine in serum or tissue samples of xenograft mice; format: in vivo, BALB/c nude mice
Procedure: However, intraperitoneal injection of tryptamine promoted the growth of PC-3 xenograft tumors in nude mice. […] Additionally, it has been reported that the intraperitoneal injections of 10 mg/kg 5-HT increased tumor weight by almost 60% using an orthotopic mouse model of ovarian cancer. As is known, both 5-HT and tryptamine in the blood can be taken up and carried by platelets and released during degranulation, and also various tryptamine-related compounds are substrates of the platelet 5-HT transporter. Thus, the tumor growth promoting effect of intraperitoneal treatment of tryptamine in our study might be similar to the effect of 5-HT, which has long been thought to be related to tumor progression.

NCCc1c[nH]c2ccccc12 [Tryptamine]
IC50 [1]: ≤ 900 µM | IC50 [2]: 0.38 ± 0.01 mM | tryptamine in serum or tissue samples ([3]; intraperitoneal treatment group): not detected | tryptamine in tissue samples ([3]; intratumoral treatment group): apparent peak
